Results published in patent publication US9957270B2, “Fused pyrimidine-based hydroxamate derivatives” (Agency for Science, Technology and Research, priority 2014, dated 2018).

Key:
[1] = molecular target: T1, PI3Kβ (Homo sapiens, UniProt P42338); assay: Kinase enzyme assay (ADP-Glo), PI3Kβ; assay type: biochemical; conditions: read-out: In Vitro Enzymatic IC50 PI3Kβ
T1 construct: purchased SignalChem or BPS P28-10H / 40622

[2] = molecular target: HDAC (HeLa nuclear extracts); assay: HDAC enzyme assay, HeLa nuclear extracts; conditions: read-out: In Vitro Enzymatic IC50 HDAC (HeLa)
[3] = Microsomal stability, mouse liver microsomes; conditions: mouse, microsomes, 0.5 h, 5 μM, pH 7.4
Method: (§1) GIBIO pooled human liver microsomes (HLM) (Cat # HMMCPL), mouse liver microsomes (MLM) (Cat # BCMCPL), and rat liver microsomes (RLM) (Cat # RTMCPL) were purchased from Life Technologies. […] Samples are incubated for 30, 45, or 60 min. Reaction is terminated with ice-cold acetonitrile 0.3% formic acid. Samples are subsequently centrifuged at 4° C. for 15 min at 20,000×g. The supernatant is analysed by LC-MS.
(§2) Compound in vitro metabolic stability was assayed using liver microsomes (LM) at 0.5 mg/mL of proteins, incubated for 30 min (mouse, MLM), 45 min (rat, RLM), 30 or 45 min (human, HLM). % of remaining parent compound was measured using LC-MS.

[4] = test system: Raji; assay: Anti-proliferative assay (cellular IC50), Raji; conditions: Homo sapiens, read-out: In Vitro Cellular IC50 Raji
Method: Cells were cultivated at 37° C., 5% CO2 in media containing 10% FBS and 2 mM glutamine Cells were routinely monitored with MycoAlert™ PLUS Mycoplasma Detection Kit (Lonza Walkersville, Inc.) to make sure they were mycoplasma free. Antibiotics (100 U/mL of penicillin and 100 μg/mL of streptomycin) were only added to the media used for compound dilution and cells in 96-well assay plates.
For a typical screening experiment, cells (100 μL/well) are inoculated into 96 well microtiter plates at plating densities ranging from 2,000 to 30,000 cells/well depending on the doubling time of individual cell lines and assay linearity. […] Suspension cells are treated with test compounds immediately after cell inoculation.
Test compounds are serially diluted (3-fold or 4-fold, 8-concentration) using the same media and added to the plates (15 to 25 μL/well). After 72 h of cultivation, the plates are assayed for cell cytotoxicity/viability by using the following two methods.
Cells in plates are fixed with cold trichloroacetic acid (TCA) (50% w/v in DI water, 1/4 volume of the medium in each well), and incubated at 4° C. for 1 h (adherent cells) or 2 h (suspension cells). The plates are washed 5 times (tap water×3, DI water×2) and air-dried. SRB solution 0.4% (w/v) in 1% acetic acid is added to each well (60 μL/well) and the plates are incubated at room temperature for 30 min, then washed with 1% acetic acid solution 4 times, and air-dried.
The plates are added CellTiter-Glo® Reagent (95 μL/well) and read the luminescence on a BioTek H4 reader per manufacture's protocol.
The raw data are processed using BioTek's Software Gen5 (v2.03.01) to generate inhibitory IC50 values.

[5] = test system: PC-3 tumors; assay: Target modulation in PC-3 prostate cancer xenograft (histone H3 acetylation, Western blot); assay type: in vivo, mouse; conditions: BALB/c nude mice, oral, EX1 150 mg/kg, EX78 100 mg/kg
Text: Blood samples, tumors and other tissues were collected for PK/PD studies at the indicated time points (two mice each time point).
The lanes and the concentrations used were as follows: […]

[6] = Microsomal stability, human liver microsomes; conditions: human, microsomes, 0.75 h, 5 μM, pH 7.4
Method: as §1, §2

[7] = Microsomal stability, rat liver microsomes; conditions: rat, microsomes, 0.75 h, 5 μM, pH 7.4
Method: as §1, §2

[8] = test system: histone 3 (Lys 9) and α-tubulin acetylation (HDACs) in PC-3 cells; assay: Western blot, acetylation of histone 3 (Lys 9) and α-tubulin in PC-3 cells; assay type: cell-based, human; conditions: 24 h, 1 or 10 μM
Method: Proteins in cell lysates are resolved by SDS-PAGE and transferred to PVDF and probed with appropriate primary and secondary antibodies. […] Representative Western blot images are shown in FIG. 15 and analyzed results are presented by FIGS. 17 to 20.
PC-3 cells were treated with test compounds at the following concentrations (all contain 0.1% DMSO) for 24 h at 37° C., and then processed according to section of Western Blot Analysis.
The graph represents results from two Western Blot analyses. […] Vehicle DMSO (0.1%) was used as blank control, and its acH3 level was normalized to 1. Y Axis is expressed as Mean±SD if applicable.
Vehicle DMSO (0.1%) as blank control, and its acetylation level was normalized to 1. Y Axis is expressed as Mean±SD if applicable.

T1 sequence (P42338 whole entry): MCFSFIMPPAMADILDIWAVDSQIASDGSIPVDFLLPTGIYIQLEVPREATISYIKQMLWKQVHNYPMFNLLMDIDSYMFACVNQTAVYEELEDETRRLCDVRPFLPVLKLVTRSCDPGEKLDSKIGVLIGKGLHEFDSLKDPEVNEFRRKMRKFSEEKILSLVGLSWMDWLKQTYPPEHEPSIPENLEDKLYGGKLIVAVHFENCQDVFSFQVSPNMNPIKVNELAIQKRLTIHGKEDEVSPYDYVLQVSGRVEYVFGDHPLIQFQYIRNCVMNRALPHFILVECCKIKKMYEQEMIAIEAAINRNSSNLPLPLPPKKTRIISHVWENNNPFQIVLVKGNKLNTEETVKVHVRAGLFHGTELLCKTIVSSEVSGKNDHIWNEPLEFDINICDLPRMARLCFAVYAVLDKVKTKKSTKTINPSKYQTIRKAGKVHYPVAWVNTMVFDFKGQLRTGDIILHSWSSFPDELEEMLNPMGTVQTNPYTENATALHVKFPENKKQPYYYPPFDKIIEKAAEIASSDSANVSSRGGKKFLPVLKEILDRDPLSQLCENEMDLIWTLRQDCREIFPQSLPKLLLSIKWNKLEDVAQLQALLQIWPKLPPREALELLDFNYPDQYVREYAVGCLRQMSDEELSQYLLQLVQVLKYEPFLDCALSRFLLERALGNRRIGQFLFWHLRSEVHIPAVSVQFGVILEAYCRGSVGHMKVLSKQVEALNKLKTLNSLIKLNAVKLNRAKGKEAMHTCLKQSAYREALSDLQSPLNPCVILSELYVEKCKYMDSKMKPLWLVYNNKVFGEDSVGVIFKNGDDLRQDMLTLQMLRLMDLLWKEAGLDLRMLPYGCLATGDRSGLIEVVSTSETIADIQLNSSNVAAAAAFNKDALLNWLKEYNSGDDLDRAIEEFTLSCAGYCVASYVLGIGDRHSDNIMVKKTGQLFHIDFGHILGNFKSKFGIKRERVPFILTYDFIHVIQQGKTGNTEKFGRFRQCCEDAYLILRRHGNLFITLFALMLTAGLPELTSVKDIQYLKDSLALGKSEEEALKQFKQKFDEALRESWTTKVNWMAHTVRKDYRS
T1 sequence (P27986 whole entry partner): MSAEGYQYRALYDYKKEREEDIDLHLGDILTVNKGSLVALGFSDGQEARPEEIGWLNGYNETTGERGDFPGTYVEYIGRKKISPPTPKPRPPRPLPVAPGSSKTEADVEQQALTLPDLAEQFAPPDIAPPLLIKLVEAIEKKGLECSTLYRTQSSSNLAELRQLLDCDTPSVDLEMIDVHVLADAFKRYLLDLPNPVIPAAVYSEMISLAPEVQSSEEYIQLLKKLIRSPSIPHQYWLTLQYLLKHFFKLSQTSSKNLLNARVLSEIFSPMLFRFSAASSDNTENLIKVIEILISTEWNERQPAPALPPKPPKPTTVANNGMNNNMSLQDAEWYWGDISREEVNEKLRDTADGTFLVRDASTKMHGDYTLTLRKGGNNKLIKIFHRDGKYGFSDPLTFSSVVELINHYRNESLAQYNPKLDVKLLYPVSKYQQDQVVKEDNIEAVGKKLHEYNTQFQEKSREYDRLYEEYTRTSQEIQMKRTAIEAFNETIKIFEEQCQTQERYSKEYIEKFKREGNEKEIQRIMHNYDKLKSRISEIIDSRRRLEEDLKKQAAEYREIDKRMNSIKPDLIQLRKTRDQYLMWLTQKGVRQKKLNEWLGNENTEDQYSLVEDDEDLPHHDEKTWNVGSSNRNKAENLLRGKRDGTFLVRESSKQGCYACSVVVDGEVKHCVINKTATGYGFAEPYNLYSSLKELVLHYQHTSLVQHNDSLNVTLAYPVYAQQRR

IC50 [1] [nM] | IC50 [2] [nM] | Microsomal Stability MLM, % of remaining parent compound [3] [%] | IC50 [4] [nM] | Microsomal Stability HLM, % of remaining parent compound [6] [%] | Microsomal Stability RLM, % of remaining parent compound [7] [%] | Compound | Hyperacetylation of H3 in PC-3 tumors [5] | Hyperacetylation of histone 3 (Lys 9) and α-tubulin [8]
10 to 100 | 100 to 1000 | – | – | – | – | CCn1c(CN(C)Cc2ccc(C(=O)NO)cc2)nc2c(N3CCOCC3)nc(-c3cnc(N)nc3)nc21 [compound 7] | – | –
– | 10 to 100 | 96 | 500 to 2000 | 101 | 70 | CC(C)n1cnc2c(-c3cccc(OCCCC(=O)NO)c3)nc(N3CCOCC3)nc21 [compound 1] | Hyperacetylation of H3 in PC-3 tumors was confirmed | the hyperacetylation effect is dose-dependent
– | – | – | 2000 to 10000 | – | – | CS(=O)(=O)N1CCN(Cc2cc3nc(-c4cccc5[nH]ncc45)nc(N4CCOCC4)c3s2)CC1 [GDC-0941, reference compound] | – | –
